# Values of other authors, collected in patent US20220241055A1, “DENTAL IMPLANT WITH ANTIBACTERIAL/ ANTIMICROBIAL PROPERTY HAVING METAL-ORGANIC FRAMEWORK (MOF) STRUCTURE AND PRODUCTION METHOD THEREOF” (RECEP TAYYIP ERDOGAN UNIVERSITESI, priority 2019, published 2022).
# Settings: conditions similar to body medium (SBF, 37° C.), stored in metal-organic framework structures
structure (smiles),measurement,value
CC(C)Cc1ccc(C(C)C(=O)O)cc1 (stereo not shown) [ibuprofen],duration of release of the stored drug,6 days
